Patent US20050058665A1, “Identification of virulence determinants activators in prokaryotic pathogens” (Boston Medical Center Corporation, priority 1998, published 2005)

T1: DtxR (Corynebacterium diphtheriae, UniProt P0DJL7)
T1 construct: expressed in transfected cells; host or cells: E. coli TOP10/λRS65T/pSC6/pRDA
T1 sequence (P0DJL7 1-226): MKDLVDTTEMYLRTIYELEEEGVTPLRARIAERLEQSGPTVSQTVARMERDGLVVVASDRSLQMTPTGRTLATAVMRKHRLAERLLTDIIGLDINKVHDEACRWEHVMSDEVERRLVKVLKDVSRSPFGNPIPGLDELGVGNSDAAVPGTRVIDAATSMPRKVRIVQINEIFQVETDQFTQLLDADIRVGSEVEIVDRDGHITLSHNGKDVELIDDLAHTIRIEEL

B1: wild-type DtxR (protein, UniProt P0DJL7 1-226, looked up)
Diphtheria toxin repressor: T1 sequence (P0DJL7 1-226)

Key:
[1] = target: T1, DtxR; assay: PSDT system, chloramphenicol resistance phenotype of the indicator strain; format: cell-based; details: E. coli TOP10/λRS65T/pSC6/pRDA; DP added to growth medium
Source text: Development of the PSDT System. The PSDT system, which consists of a lysogenic E. coli TOP1O host strain carrying the reporter gene cat on an integrated λ phage, λRS65T, and a set of detector plasmids, is illustrated in FIG. 1. Expression of cat on λRS65T is controlled by the tetA promoter/operator (tetAPO), and, in the absence of the tetracycline repressor (TetR), E. coli TOP10/λRS65T is resistant to chloramphenicol (Cm^R).
We next constructed the detector plasmid pSC6, which carries the tetR gene under the control of the diphtheria toxPO. When pSC6 is transformed into E. coli TOP10/λRS65T, the bacterial host strain becomes Cm-sensitive (Cm^S) by virtue of the constitutive expression of tetR, which recognizes and binds to the tetAO and represses cat gene expression. However, if a functional dtxR allele is introduced into the bacterial host on a second compatible plasmid, PRDA, the interaction between DtxR and the toxO will repress the expression of tetR, and the bacterial host, E. coli TOP10/λRS65T/pSC6/pRDA, then will regain its CM^rphenotype.

[2] = test system: toxPO-lacZ; assay: β-galactosidase assay in toxPO-lacZ reporter strain; format: cell-based; details: E. coli DH5α/λRS45 toxPO; LB broth, absence or presence of increasing concentrations of DP (up to 250 μM)
Protocol: β-Galactosidase Assay. β-galactosidase activity was measured essentially as described by Miller (Miller, J. H. (1972) Experiments in Molecular Genetics (Cold Spring Harbor Lab. Press, Plainview, N.Y.)). In brief, 0.5 ml of an overnight culture at ^A600 of =1.0 were lysed by the addition of lysis mix (chloroform:10% SDS, 2:1), vortexing the mixture for 10 sec and transferring 200 μl to 800 ul lacZ buffer (60 mM Na2HPO4/40 mM NaH2PO4/10 mM KCl/1 mM MgSO4/50 mM β-mercaptoethanol). The reaction was initiated by adding 200 μl of o-nitrophenyl β-D-galactopyranoside (Sigma) (4 mg/ml). After incubation at room temperature (5 min-1 hr), the reaction was stopped by the addition of 0.5 ml of 1M sodium carbonate. Absorbance was measured at 420 and 550 nm, and β-galactosidase units were calculated according to Miller, supra.
The resulting plasmids were designated pDM2, pDM3, pDM11, and pDM5, respectively. The pDM series of plasmids then were transformed individually into E. coli DH5α/λRS45 toxPO. This reporter strain carries a transcriptional fusion in which the lacZ gene is under the control of the diphtheria toxPO, toxPO-lacZ, and, as a result, the synthesis of β-galactosidase is regulated by their respective dtxR gene products. Individual strains were grown in LB broth supplemented with appropriate antibiotics in either the absence or presence of increasing concentrations of DP. […]

Molecule | chloramphenicol resistance phenotype [1] | β-galactosidase activity [2]
c1ccc(-c2ccccn2)nc1 [DP, 2,2′-dipyridyl] | phenotypic conversion from Cm^R to Cm^S | –
B1 | – | β-galactosidase activity increases
